The results in this text go back to publication PMC12091851, “Replacing a Cereblon Ligand by a DDB1 and CUL4 Associated Factor 11 (DCAF11) Recruiter Converts a Selective Histone Deacetylase 6 PROTAC into a Pan‐Degrader” (Chemmedchem, 2025).

Assay [1] has as its target HDAC4 (Homo sapiens, UniProt P56524). Description: HDAC enzyme inhibition assay. Type of assay: biochemical. More on the design: purchased BPS Bioscience 50004. As for the experimental part: (§1) Bio-Rad) to Immobilon-FL PVDF membranes (Catalog# IPFL00005, Mill ipore Merck, Burlington, MA, USA) at 1.0 A for 30 min and treated with 5% milk-powder solution for 1 h at room temperature […]
(§2) Signaling Technology) antibody solutions in 1:1000 –1:8000 dilutions at 4 °C overnight. […]
Significance testing was performed with a one -way analysis […]
compared to a reference mean value.
(§3) 2.7. HDAC Enzyme Inhibition Assay […]
In vitro inhibitory activities against HDAC4 were measured using a previously published protocol with slight modifications. For test compounds and controls, serial dilutions of the respective DMSO stock solution in DMSO were prepared, and 1.0 μL /well of this serial dilution were transferred […]
(§4) into OptiPlate-96 black microplates (PerkinElmer, Waltham, […], USA). A volume of 4 µL/well assay […]
(§5) BSA) was added. In the case of HDAC1, 2, and 6, a volume of 35 μL/well of the fluorogenic substrate […]
(§6) The total assay volume of 50 μL (max. 2 % DMSO) was incubated at 37 °C for 90 min. Subsequently, 50 μL /well of trypsin (0.4 mg/mL) in trypsin buffer (50 mM Tris−HCl, pH 8.0, 100 mM NaCl) was added, followed by additional 30 min of incubation at […]
(§7) OPTIMA microplate reader (BMG labtech, Ortenburg, Germany). The half maximal inhibitory concentration (IC50) was determined by plotting dose response curves and nonlinear regression with GraphPad Prism (GraphPad Software).
2.8. […]

Assay [2] concerns the target T1, HDAC6 (Homo sapiens, UniProt Q9UBN7).
T1 sequence (Q9UBN7 1-1215): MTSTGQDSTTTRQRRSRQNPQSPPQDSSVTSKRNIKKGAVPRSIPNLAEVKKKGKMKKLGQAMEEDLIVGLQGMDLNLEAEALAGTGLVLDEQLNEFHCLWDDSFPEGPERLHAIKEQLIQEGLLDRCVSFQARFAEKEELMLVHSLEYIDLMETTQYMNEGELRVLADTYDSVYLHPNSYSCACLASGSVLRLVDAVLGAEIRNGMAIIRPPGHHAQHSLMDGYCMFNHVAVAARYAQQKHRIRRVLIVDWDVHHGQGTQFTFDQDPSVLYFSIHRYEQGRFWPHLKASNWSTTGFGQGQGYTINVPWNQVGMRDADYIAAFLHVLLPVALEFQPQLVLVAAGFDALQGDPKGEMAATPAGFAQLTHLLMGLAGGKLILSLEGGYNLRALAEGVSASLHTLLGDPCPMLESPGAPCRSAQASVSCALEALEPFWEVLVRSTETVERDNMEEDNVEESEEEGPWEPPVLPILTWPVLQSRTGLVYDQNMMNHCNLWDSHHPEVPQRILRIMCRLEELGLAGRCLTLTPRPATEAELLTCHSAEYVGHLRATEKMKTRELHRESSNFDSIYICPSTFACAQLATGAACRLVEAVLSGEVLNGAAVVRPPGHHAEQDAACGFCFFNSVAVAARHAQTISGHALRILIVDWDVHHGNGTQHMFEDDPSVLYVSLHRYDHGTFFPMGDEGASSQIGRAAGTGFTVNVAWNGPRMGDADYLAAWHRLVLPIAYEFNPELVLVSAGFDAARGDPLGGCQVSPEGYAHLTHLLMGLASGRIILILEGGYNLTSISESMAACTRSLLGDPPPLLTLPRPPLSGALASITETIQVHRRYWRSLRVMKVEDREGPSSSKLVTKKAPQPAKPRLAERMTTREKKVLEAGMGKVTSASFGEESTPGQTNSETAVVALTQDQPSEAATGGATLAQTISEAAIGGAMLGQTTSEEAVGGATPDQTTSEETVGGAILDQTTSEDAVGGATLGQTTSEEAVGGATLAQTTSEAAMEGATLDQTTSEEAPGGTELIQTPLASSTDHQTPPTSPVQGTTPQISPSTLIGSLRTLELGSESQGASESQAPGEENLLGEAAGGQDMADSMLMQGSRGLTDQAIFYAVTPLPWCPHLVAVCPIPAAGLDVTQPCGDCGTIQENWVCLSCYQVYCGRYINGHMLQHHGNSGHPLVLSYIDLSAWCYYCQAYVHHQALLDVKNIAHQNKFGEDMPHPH
The assay can be described thus: HDAC enzyme inhibition assay. Type of assay: biochemical. Set-up: purchased BPS Bioscience 50006. How it is done:
as §1, §2
Significance testing was performed with a one -way analysis of variance (ANOVA). Dunnett’s post -hoc test was employed to obtain significance levels of each mean compared to a reference mean value.
as §3
[4] For test compounds and controls, serial dilutions of the respective DMSO stock solution in DMSO were prepared, and 1.0 μL /well of this serial dilution were transferred […]
as §4, §5, §6, §7
2.8. MTT Cell Viability Assay […]

HDAC4, sequence (P56524 627-1084 limits assumed): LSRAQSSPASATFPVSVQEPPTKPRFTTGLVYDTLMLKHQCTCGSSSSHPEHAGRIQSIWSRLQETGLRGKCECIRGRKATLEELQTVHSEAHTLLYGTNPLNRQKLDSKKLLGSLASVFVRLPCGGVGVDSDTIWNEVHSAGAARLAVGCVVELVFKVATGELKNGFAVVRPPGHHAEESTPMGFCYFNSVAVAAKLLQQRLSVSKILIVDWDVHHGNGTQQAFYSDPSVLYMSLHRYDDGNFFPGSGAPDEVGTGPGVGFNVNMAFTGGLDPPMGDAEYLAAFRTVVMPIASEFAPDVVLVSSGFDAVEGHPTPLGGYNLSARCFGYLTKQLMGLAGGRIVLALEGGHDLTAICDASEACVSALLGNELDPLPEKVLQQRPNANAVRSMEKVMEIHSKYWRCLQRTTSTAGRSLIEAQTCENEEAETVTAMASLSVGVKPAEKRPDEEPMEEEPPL

For orientation: IC50 means the concentration that inhibits the measured activity by half. Read a low IC50 as higher potency. In the case of `O=C(CCCCCCNC(=O)c1ccc(NC(=O)CCCCCCCCCCCN(C(=O)CCl)C(C(=O)NCc2ccccc2)c2ccc(Cl)c(Cl)c2)cc1)NO` (stereo not shown) [Compound 1j], the IC50 stood at 12.4 ± 1.5 µM in assay [1] and 0.053 ± 0.001 µM in assay [2].

With `O=C(CCCCCCNC(=O)c1ccc(N(C(=O)CCl)C(C(=O)NCc2ccccc2)c2ccc(Cl)c(Cl)c2)cc1)NO` (stereo not shown) [Compound 2], the IC50 was 3.26 ± 0.08 µM in assay [1] and 0.007 ± 0.001 µM in assay [2].
